Experimental data: paper PMC5928083, “Structural basis for energy transduction by respiratory alternative complex III” (Nature Communications, 2018)

Biological target: T1, ACIII (alternative complex III) (Rhodothermus marinus, UniProt D0MDD6)
T1 construct: gene Rmar_0223; native multi-subunit membrane complex purified from R. marinus membranes in DDM; ActB Tat signal peptide (74 residues) absent; one further unidentified subunit; with Quinol:cytochrome c oxidoreductase pentaheme cytochrome subunit (alternative complex III subunit ActA); Quinol:cytochrome c oxidoreductase iron-sulfur protein (alternative complex III subunit ActB); Quinol:cytochrome c oxidoreductase membrane protein (alternative complex III subunit ActD); Quinol:cytochrome c oxidoreductase monoheme cytochrome subunit (alternative complex III subunit ActE); Alternative complex III subunit ActG; Hypothetical protein Rmar_1979 (ActH)
Experiment: isothermal titration calorimetry
Format: binding
Details: read-out: log Ka (converted)

Kd: 316 nM
Compound: CC1=C(C)C(=O)c2ccccc2C1=O [2,3-dimethyl-1,4-naphthoquinone]
